Test results: ChEMBL document CHEMBL2407043, “Hydantoin based inhibitors of MMP13--discovery of AZD6605” (Bioorg Med Chem Lett, 2013)
pIC50: −log10 of the molar value. In brackets after ≈: the same amount, converted by molar mass.

Experiments:
[1] = molecular target: Matrix metalloproteinase-14 (Homo sapiens, UniProt P50281)
[2] = molecular target: Macrophage metalloelastase (Homo sapiens, UniProt P39900); assay: Inhibition of MMP-12 (unknown origin) by fluorescence assay
[3] = Thermodynamic solubility of the compound in phosphate buffer at pH 7.4 at 25 degC after 24 hrs; conditions: read-out: Therm_solubility
Cavia porcellus = assay: Inhibition of cartilage loss in Dunkin Hartley guinea pig spontaneous osteoarthritis model at 0.06 mg/kg/day, sc after 12 weeks (reference value: 23%); type: functional; conditions: 2016 h, route subcutaneous
[4] = Clearance in rat at 2 mg/kg, iv; type: ADME, organism-based; design: dose 2 mg/kg, route intravenous; conditions: in vivo
[5] = Oral bioavailability in rat at 3 to 10 mg/kg; type: ADME, organism-based; conditions: in vivo
[6] = Half life in rat; type: ADME, organism-based; conditions: in vivo
[7] = Volume of distribution at steady state in rat at 2 mg/kg, iv and 5 mg/kg, po; type: ADME, organism-based; conditions: in vivo, read-out: Vdss
in vitro [8] = conditions: human, liver microsomes
[9] = Intrinsic clearance in rat liver microsomes; type: ADME, Microsome; conditions: read-out: CLH
[10] = Intrinsic clearance in dog liver microsomes; type: ADME, Canis lupus familiaris, Microsome; conditions: read-out: CLH
Cytochrome P450 3A4 = Cytochrome P450 3A4 (Homo sapiens, UniProt P08684); assay: Inhibition of human CYP3A4; type: ADME
Cytochrome P450 2C19 = Cytochrome P450 2C19 (Homo sapiens, UniProt P33261); assay: Inhibition of human CYP2C19; type: ADME
Cytochrome P450 2D6 = Cytochrome P450 2D6 (Homo sapiens, UniProt P10635); assay: Inhibition of human CYP2D6; type: ADME
Cytochrome P450 1A2 = molecular target: T1, Cytochrome P450 1A2 (Homo sapiens, UniProt P05177); assay: Inhibition of human CYP1A2; type: ADME
T1 sequence (P05177 whole entry): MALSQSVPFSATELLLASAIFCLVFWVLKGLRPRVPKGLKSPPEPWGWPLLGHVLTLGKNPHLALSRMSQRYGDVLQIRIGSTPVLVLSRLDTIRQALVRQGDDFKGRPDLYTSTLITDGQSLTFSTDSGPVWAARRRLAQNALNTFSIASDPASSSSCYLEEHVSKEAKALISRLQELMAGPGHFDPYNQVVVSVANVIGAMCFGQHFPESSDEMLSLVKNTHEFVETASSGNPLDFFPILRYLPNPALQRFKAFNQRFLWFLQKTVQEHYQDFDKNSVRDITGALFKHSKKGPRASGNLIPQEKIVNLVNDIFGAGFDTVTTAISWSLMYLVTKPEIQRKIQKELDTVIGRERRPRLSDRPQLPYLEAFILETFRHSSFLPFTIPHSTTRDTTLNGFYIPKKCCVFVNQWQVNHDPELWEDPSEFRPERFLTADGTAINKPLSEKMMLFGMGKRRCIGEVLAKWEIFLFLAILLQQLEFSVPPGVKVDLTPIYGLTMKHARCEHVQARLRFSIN

Cytochrome P450 2C9 = Cytochrome P450 2C9 (Homo sapiens, UniProt P11712); assay: Inhibition of human CYP2C9; type: ADME
[11] = Fraction unbound in dog plasma; type: ADME, cell-free, Canis lupus familiaris
[12] = Intrinsic clearance in human hepatocytes measured per 10^6 cells; type: ADME, cell-based, Hepatocyte; conditions: read-out: CLH
[13] = Fraction unbound in human plasma; type: ADME, cell-free
[14] = Oral bioavailability in rat at 5 mg/kg; type: ADME, organism-based; conditions: in vivo
[15] = Fraction unbound in rat plasma; type: ADME, cell-free
[16] = Volume of distribution at steady state in dog at 0.5 mg/kg, iv and 1 mg/kg, po; type: ADME, organism-based, Canis lupus familiaris; conditions: in vivo, read-out: Vdss
[17] = Apparent permeability across basolateral to apical side in human Caco2 cells at 10 uM; type: ADME, cell-based; conditions: Caco-2
in vitro [18] = conditions: human, Caco-2
[19] = Oral bioavailability in dog at 1 mg/kg; type: ADME, organism-based, Canis lupus familiaris; conditions: in vivo
[20] = Solubility of compound in fasted state simulated intestinal fluid; type: physicochemical
[21] = Clearance in dog at 0.5 mg/kg, iv and 1 mg/kg, po; type: ADME, organism-based, Canis lupus familiaris; conditions: in vivo
[22] = Clearance in rat at 2 mg/kg, iv and 5 mg/kg, po; type: ADME, organism-based; conditions: in vivo
[23] = Half life in rat at 2 mg/kg, iv and 5 mg/kg, po; type: ADME, organism-based; conditions: in vivo
physchem = conditions: buffer, pH 7.4
[24] = Half life in dog at 0.5 mg/kg, iv and 1 mg/kg, po; type: ADME, organism-based, Canis lupus familiaris; conditions: in vivo

Macrophage metalloelastase, sequence (P39900 whole entry): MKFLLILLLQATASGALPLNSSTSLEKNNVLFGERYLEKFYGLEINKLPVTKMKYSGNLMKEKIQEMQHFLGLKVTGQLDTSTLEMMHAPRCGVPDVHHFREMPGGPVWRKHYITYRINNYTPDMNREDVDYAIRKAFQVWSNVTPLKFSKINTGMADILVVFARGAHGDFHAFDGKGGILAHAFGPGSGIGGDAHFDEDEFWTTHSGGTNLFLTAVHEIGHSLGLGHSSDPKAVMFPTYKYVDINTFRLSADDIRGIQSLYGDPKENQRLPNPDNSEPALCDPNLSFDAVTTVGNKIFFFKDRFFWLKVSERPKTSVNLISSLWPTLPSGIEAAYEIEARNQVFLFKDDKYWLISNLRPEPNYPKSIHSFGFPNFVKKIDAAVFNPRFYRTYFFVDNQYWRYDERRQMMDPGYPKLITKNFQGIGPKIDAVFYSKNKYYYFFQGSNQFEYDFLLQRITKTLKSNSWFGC
Cytochrome P450 2C9, sequence (P11712 whole entry): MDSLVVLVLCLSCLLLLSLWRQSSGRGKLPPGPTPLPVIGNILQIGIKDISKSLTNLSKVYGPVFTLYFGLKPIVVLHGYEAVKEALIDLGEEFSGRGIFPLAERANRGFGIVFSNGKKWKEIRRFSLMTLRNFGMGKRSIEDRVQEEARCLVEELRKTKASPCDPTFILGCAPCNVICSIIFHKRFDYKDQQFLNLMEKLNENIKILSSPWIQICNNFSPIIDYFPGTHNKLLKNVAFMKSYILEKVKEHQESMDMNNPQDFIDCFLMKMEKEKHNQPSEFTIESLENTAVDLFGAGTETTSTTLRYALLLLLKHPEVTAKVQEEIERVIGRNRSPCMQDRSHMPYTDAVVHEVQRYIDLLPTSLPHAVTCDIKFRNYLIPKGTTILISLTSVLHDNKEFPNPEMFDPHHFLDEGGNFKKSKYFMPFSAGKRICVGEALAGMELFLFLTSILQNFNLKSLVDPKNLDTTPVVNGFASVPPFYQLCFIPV
Cytochrome P450 2D6, sequence (P10635 whole entry): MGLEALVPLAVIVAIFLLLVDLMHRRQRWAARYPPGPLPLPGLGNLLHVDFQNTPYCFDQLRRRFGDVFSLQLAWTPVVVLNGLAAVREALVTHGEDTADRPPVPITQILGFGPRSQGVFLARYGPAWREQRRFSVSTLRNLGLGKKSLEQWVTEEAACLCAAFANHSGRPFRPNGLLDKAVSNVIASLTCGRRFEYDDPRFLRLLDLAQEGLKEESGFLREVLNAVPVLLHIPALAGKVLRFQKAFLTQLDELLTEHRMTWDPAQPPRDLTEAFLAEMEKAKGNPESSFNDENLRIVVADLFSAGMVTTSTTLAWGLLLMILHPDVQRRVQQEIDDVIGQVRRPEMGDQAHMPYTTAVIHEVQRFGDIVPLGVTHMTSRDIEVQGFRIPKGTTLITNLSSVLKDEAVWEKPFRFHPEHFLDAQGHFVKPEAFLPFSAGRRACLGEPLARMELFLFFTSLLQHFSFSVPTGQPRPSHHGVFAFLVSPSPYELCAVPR
Cytochrome P450 3A4, sequence (P08684 whole entry): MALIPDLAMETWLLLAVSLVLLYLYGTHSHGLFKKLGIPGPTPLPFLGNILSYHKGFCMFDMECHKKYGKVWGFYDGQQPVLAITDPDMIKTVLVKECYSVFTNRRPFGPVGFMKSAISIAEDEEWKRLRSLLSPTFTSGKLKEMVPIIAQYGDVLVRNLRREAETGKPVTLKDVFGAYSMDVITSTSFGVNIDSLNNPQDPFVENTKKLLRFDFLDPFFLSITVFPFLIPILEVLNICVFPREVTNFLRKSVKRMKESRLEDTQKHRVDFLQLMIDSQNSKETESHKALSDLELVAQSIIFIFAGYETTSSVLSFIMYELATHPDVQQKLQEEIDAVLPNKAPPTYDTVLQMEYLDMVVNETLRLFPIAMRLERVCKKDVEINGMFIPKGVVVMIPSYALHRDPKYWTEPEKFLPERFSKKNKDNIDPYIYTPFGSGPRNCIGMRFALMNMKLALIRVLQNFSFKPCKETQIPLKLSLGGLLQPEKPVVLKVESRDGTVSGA
Cytochrome P450 2C19, sequence (P33261 whole entry): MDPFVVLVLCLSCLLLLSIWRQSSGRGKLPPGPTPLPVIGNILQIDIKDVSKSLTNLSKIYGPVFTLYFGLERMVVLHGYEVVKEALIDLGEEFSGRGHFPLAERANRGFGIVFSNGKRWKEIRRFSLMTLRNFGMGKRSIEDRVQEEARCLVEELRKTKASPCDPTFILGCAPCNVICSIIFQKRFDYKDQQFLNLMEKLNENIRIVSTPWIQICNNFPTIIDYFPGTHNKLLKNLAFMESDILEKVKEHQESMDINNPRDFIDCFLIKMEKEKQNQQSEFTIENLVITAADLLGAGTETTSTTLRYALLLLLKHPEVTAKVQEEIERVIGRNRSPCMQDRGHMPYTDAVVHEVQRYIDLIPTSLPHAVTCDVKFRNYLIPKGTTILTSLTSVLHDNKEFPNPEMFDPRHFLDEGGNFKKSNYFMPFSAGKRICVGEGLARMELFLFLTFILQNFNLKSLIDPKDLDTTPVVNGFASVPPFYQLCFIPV

**Q.** With `C[C@]1(CS(=O)(=O)N2CCC(Oc3ccc(OC(F)(F)F)cc3)CC2)NC(=O)NC1=O` as the molecule, how does the pIC50 [1] read?
**A.** Its pIC50 is 5.02.

**Q.** And the pIC50 [2]?
**A.** The pIC50 was 8.48.

**Q.** And the solubility thermodynamic at 24 h [3]?
**A.** The solubility thermodynamic at 24 h was 18 µM (≈ 8.13 µg/mL).

**Q.** With `C[C@]1(CS(=O)(=O)N2CCC(Oc3ccc(Cl)cc3)CC2)NC(=O)NC1=O` as the molecule, how does the pIC50 [2] read?
**A.** Its pIC50 is 8.05.

**Q.** What about the solubility thermodynamic at 24 h [3] of the same molecule?
**A.** Its solubility thermodynamic at 24 h is 12 µM (≈ 4.82 µg/mL).

**Q.** For `O=CN(O)[C@@H](CCc1ncccn1)CS(=O)(=O)N1CCN(c2ccc(OCC(F)(F)F)cn2)CC1`, which inhibition in vivo at 0.06 mg/kg/day (Cavia porcellus) is on record?
**A.** The inhibition in vivo at 0.06 mg/kg/day was 76%.

**Q.** With `C[C@]1(CS(=O)(=O)N2CCC(Oc3ccc(OCc4ncccn4)cc3)CC2)NC(=O)NC1=O` as the molecule, how does the solubility thermodynamic at 24 h [3] read?
**A.** The solubility thermodynamic at 24 h was 560 µM (≈ 266 µg/mL).

**Q.** Which solubility thermodynamic at 24 h [3] does the source give for `C[C@]1(CS(=O)(=O)N2CCC(Oc3ccc(OCc4cccnc4)cc3)CC2)NC(=O)NC1=O` here?
**A.** Its solubility thermodynamic at 24 h is 8.4 µM (≈ 3.99 µg/mL).

**Q.** With `C[C@]1(CS(=O)(=O)N2CCC(Oc3ccc(OC(F)(F)C(F)(F)F)cc3)CC2)NC(=O)NC1=O` as the molecule, how does the pIC50 [1] read?
**A.** The pIC50 was less than 5.00.

**Q.** What about the solubility thermodynamic at 24 h [3] of the same molecule?
**A.** The solubility thermodynamic at 24 h was less than 2 µM.

**Q.** Which clearance [4] does the source give for `C[C@]1(CS(=O)(=O)N2CCN(c3ncc(OCc4cnc(C#N)s4)cn3)CC2)NC(=O)NC1=O` here?
**A.** The clearance was 97.3 mL/min/kg.

**Q.** What about the bioavailability [5] of the same molecule?
**A.** Its bioavailability is 6%.

**Q.** What about the half-life [6] of the same molecule?
**A.** Its half-life is 0.23 h.

**Q.** What about the Vd [7] of the same molecule?
**A.** Its Vd is 0.5 L/kg.

**Q.** What about the solubility thermodynamic at 24 h [3] of the same molecule?
**A.** The solubility thermodynamic at 24 h was 14 µM (≈ 6.9 µg/mL).

**Q.** And the microsomal CLint (in vitro [8])?
**A.** The microsomal CLint was 16 µL/min/mg.

**Q.** Which results are given for `C[C@]1(CS(=O)(=O)N2CCC(Oc3ccc(OCc4cscn4)cc3)CC2)NC(=O)NC1=O`?
**A.** pIC50 [1]: 5.39; solubility thermodynamic at 24 h [3]: 87 µM (≈ 41.8 µg/mL)

**Q.** With `C[C@]1(CS(=O)(=O)N2CCN(c3ncc(OCc4cncs4)cn3)CC2)NC(=O)NC1=O` as the molecule, how does the solubility thermodynamic at 24 h [3] read?
**A.** The solubility thermodynamic at 24 h was 49 µM (≈ 22.9 µg/mL).

**Q.** For `C[C@]1(CS(=O)(=O)N2CCC(Oc3ccc(C(F)(F)F)cc3)CC2)NC(=O)NC1=O`, which microsomal CLint [9] is on record?
**A.** Its microsomal CLint is less than 10 µL/min/mg.

**Q.** And the microsomal CLint [10]?
**A.** Its microsomal CLint is less than 10 µL/min/mg.

**Q.** And the pIC50 (Cytochrome P450 3A4)?
**A.** The pIC50 was less than 4.40.

**Q.** What about the pIC50 (Cytochrome P450 2C19) of the same molecule?
**A.** The pIC50 was less than 4.40.

**Q.** What about the pIC50 (Cytochrome P450 2D6) of the same molecule?
**A.** Its pIC50 is less than 4.40.

**Q.** What about the pIC50 [2] of the same molecule?
**A.** The pIC50 was 8.23.

**Q.** And the pIC50 (Cytochrome P450 1A2)?
**A.** The pIC50 was less than 4.40.

**Q.** And the pIC50 (Cytochrome P450 2C9)?
**A.** The pIC50 was less than 4.40.

**Q.** And the solubility thermodynamic at 24 h [3]?
**A.** Its solubility thermodynamic at 24 h is 23 µM (≈ 10 µg/mL).

**Q.** What about the microsomal CLint (in vitro [8]) of the same molecule?
**A.** The microsomal CLint was less than 10 µL/min/mg.

**Q.** Which results are given for `C[C@]1(CS(=O)(=O)N2CCN(c3ncc(OCc4ccc(C(F)(F)F)o4)cn3)CC2)NC(=O)NC1=O`?
**A.** fraction unbound [11]: 0.08; hepatocyte CLint [12]: < 2 µL/min/1e6 cells; fraction unbound [13]: 0.06; bioavailability [14]: 100%; clearance [4]: 6.3 mL/min/kg; fraction unbound [15]: 0.08; Vd [16]: 1.2 L/kg; Papp B→A at 10 µM [17]: 52 ×10⁻⁶ cm/s; Papp A→B at 10 µM (in vitro [18]): 9 ×10⁻⁶ cm/s; bioavailability [5]: 100%; bioavailability [19]: 51%; solubility [20]: 26.5 µM (≈ 13.7 µg/mL); clearance [21]: 1.3 mL/min/kg; clearance [22]: 6.3 mL/min/kg; half-life [6]: 2.6 h; Vd [7]: 1.3 L/kg; half-life [23]: 2.6 h; logD (physchem): 2.3; half-life [24]: 10.6 h; solubility thermodynamic at 24 h [3]: 11 µM (≈ 5.7 µg/mL); microsomal CLint (in vitro [8]): 7 µL/min/mg

**Q.** Which solubility thermodynamic at 24 h [3] does the source give for `C[C@]1(CS(=O)(=O)N2CCC(Oc3ccc(OCc4ccc(C#N)cc4)cc3)CC2)NC(=O)NC1=O` here?
**A.** The solubility thermodynamic at 24 h was 1.8 µM (≈ 0.897 µg/mL).

**Q.** For `C[C@]1(CS(=O)(=O)N2CCN(c3ncc(OCc4cc(C(F)(F)F)no4)cn3)CC2)NC(=O)NC1=O`, which clearance [4] is on record?
**A.** The clearance was 9.4 mL/min/kg.

**Q.** And the half-life [6]?
**A.** Its half-life is 3.3 h.

**Q.** And the Vd [7]?
**A.** Its Vd is 0.5 L/kg.

**Q.** What about the solubility thermodynamic at 24 h [3] of the same molecule?
**A.** Its solubility thermodynamic at 24 h is 3.1 µM (≈ 1.61 µg/mL).

**Q.** Which results are given for `COc1ccc(COc2ccc(OC3CCN(S(=O)(=O)C[C@@]4(C)NC(=O)NC4=O)CC3)cc2)cc1`?
**A.** pIC50 [1]: 5.97; solubility thermodynamic at 24 h [3]: 1.2 µM (≈ 0.604 µg/mL)

**Q.** Which results are given for `C[C@]1(CS(=O)(=O)N2CCC(Oc3ccc(F)cc3)CC2)NC(=O)NC1=O`?
**A.** pIC50 [2]: 7.63; solubility thermodynamic at 24 h [3]: 52 µM (≈ 20 µg/mL)

**Q.** With `C[C@]1(CS(=O)(=O)N2CCC(Oc3ccc(OCc4ccc(F)cc4)cc3)CC2)NC(=O)NC1=O` as the molecule, how does the pIC50 [1] read?
**A.** Its pIC50 is 5.11.

**Q.** With `C[C@]1(CS(=O)(=O)N2CCC(Oc3ccc(OCc4ccncc4)cc3)CC2)NC(=O)NC1=O` as the molecule, how does the solubility thermodynamic at 24 h [3] read?
**A.** Its solubility thermodynamic at 24 h is 130 µM (≈ 61.7 µg/mL).

**Q.** Which results are given for `C[C@]1(CS(=O)(=O)N2CCC(Oc3ccc(OCCC(F)(F)F)cc3)CC2)NC(=O)NC1=O`?
**A.** pIC50 [1]: 5.51; solubility thermodynamic at 24 h [3]: 110 µM (≈ 52.7 µg/mL)
